{"source": "patent US11377427B2", "about": "“Triazoles for regulating intracellular calcium homeostasis” (UNIVERSIDAD DEL PAIS VASCO, priority 2016, dated 2022)", "key": {"[1]": {"system": "left ventricle of a rat heart", "settings": "concentrations of 10^-6 M; in vitro; without affecting left ventricular heart rate or pressure; cited from earlier work"}, "[2]": {"target": "T1, RyR1-calstabin1 interaction (Homo sapiens, UniProt P21817+P62942)", "T1 construct": "endogenous in cells; host or cells: LHCN-M2 human myotubes (differentiated for 9 days)", "T1 sequence (P21817 whole entry)": "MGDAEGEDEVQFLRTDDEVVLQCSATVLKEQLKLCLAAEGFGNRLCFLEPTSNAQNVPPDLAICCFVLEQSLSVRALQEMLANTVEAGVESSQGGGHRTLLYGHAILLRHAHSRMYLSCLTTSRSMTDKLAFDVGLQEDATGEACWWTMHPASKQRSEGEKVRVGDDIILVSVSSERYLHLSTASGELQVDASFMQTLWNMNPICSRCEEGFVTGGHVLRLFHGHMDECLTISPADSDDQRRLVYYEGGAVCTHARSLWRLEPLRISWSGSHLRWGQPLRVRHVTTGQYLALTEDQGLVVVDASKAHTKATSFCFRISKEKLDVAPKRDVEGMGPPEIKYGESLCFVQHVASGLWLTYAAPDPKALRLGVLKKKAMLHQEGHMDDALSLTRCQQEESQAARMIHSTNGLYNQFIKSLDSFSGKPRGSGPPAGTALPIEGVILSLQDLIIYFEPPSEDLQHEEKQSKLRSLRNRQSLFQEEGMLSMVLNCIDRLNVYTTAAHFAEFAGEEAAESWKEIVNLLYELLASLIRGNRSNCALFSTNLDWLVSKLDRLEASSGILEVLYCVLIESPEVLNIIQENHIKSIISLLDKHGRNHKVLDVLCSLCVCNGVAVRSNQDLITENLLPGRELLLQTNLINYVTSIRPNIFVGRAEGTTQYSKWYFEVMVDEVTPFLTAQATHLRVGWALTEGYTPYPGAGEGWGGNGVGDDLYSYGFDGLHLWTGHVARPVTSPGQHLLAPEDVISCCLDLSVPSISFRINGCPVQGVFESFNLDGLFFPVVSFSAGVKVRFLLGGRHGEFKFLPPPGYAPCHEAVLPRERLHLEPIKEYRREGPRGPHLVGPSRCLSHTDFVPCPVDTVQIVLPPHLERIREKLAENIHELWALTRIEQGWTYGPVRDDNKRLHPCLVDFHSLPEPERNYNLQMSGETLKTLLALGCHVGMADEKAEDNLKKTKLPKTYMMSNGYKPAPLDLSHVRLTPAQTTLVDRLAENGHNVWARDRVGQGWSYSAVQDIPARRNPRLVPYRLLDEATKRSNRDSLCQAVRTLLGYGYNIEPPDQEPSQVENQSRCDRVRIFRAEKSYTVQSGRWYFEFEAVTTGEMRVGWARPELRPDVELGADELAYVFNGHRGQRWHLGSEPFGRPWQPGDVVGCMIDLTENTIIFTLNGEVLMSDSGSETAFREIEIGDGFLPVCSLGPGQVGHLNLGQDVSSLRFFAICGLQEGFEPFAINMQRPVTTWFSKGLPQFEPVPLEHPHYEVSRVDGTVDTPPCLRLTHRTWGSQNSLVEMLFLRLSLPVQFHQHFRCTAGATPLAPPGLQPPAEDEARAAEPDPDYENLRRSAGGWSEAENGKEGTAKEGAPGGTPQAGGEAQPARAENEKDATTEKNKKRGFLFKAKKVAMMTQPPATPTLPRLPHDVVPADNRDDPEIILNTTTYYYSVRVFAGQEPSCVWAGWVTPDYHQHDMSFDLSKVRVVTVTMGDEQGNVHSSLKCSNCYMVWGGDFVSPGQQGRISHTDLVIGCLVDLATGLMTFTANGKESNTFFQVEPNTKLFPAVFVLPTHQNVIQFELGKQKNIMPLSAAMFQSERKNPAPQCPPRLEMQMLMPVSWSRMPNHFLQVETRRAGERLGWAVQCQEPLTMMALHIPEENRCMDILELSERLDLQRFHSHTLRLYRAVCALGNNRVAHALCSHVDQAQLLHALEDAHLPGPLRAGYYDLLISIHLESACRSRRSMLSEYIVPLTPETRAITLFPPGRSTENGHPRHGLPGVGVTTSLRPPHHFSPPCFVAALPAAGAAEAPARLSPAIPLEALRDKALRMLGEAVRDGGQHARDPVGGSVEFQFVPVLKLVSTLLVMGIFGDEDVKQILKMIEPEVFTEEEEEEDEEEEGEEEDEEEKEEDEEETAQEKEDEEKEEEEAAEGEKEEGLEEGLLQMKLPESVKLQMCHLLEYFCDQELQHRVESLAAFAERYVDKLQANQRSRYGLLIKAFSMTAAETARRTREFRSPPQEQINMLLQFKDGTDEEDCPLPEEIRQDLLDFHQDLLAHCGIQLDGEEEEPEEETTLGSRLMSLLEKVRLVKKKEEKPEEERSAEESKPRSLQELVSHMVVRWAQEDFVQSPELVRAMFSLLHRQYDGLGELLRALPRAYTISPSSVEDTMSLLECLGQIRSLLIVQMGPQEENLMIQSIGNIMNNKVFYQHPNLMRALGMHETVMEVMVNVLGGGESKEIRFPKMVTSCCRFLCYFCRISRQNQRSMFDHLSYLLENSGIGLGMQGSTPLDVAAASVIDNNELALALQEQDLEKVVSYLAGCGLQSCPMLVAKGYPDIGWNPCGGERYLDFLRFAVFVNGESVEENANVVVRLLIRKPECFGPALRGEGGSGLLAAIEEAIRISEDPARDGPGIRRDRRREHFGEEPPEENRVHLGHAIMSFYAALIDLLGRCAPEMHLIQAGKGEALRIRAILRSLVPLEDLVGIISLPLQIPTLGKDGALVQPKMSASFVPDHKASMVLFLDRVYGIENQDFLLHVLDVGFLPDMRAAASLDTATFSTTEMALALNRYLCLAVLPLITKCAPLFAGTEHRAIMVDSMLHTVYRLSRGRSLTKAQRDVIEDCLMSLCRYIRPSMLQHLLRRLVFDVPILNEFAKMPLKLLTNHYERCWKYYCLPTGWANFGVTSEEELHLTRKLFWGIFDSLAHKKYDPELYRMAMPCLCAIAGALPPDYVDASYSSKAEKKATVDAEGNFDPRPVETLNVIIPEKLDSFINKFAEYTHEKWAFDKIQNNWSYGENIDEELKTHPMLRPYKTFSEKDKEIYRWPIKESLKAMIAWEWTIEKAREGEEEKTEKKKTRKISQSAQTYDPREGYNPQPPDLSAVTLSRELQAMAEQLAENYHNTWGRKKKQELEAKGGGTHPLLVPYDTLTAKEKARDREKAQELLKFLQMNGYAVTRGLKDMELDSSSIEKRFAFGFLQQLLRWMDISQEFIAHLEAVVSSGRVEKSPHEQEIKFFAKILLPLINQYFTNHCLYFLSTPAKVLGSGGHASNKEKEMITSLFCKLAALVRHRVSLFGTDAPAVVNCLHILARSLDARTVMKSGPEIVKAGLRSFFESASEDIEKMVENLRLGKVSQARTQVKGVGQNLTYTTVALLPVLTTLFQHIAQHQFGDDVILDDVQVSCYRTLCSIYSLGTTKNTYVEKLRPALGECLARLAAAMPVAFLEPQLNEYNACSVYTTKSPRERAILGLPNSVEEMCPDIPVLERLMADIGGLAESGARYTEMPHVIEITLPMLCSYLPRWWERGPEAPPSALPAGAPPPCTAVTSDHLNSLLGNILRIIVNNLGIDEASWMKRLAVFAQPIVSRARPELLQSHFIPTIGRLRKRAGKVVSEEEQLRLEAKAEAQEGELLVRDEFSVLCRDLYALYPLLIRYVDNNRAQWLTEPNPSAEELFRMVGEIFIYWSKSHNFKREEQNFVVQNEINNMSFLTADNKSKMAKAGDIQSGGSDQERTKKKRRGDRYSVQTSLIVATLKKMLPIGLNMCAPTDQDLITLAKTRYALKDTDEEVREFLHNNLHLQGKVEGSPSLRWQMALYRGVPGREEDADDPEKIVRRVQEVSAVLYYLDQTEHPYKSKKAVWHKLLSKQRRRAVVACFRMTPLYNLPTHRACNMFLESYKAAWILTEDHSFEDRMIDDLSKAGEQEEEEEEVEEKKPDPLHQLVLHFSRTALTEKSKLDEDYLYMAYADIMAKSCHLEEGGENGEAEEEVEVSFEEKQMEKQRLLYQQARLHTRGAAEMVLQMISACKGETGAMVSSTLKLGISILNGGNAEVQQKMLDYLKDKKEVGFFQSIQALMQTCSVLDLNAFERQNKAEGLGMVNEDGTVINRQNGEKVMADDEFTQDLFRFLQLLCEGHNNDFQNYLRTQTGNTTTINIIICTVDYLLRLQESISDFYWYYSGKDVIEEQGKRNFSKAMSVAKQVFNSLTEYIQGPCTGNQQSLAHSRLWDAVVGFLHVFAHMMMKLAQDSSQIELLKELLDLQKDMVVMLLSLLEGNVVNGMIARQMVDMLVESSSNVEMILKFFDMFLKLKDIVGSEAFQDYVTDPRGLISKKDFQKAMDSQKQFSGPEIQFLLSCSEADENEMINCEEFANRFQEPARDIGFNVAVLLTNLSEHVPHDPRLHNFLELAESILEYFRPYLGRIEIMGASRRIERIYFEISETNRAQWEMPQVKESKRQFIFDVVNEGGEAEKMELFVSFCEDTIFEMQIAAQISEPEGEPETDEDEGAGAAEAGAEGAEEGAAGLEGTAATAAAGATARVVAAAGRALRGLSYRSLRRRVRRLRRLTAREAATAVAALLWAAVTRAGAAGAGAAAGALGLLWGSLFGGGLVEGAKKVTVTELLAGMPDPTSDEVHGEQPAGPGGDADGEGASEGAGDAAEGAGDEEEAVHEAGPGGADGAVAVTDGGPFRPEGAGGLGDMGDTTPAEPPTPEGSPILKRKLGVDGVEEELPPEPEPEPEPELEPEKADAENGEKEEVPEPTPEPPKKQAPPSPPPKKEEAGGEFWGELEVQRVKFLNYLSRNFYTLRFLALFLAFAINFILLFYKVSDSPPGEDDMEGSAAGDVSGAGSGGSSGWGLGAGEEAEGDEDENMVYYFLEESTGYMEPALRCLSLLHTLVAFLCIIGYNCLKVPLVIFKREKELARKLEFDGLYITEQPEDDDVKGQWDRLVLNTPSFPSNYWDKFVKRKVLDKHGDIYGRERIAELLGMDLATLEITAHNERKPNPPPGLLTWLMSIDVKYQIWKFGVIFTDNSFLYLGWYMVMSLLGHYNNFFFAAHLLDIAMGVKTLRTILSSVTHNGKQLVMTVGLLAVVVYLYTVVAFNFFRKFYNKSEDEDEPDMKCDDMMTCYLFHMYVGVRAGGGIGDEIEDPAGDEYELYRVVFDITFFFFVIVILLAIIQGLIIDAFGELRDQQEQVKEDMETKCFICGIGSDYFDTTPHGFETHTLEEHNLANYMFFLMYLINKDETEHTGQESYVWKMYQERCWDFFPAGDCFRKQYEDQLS", "T1 sequence (P62942 2-108 limits assumed)": "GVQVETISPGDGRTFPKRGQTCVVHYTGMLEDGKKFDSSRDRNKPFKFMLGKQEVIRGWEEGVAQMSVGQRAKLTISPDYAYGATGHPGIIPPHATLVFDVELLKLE", "experiment": "RyR1-calstabin1 interaction by in situ PLA in human myotubes under SIN1 nitro-oxidative stress", "assay_type": "cell-based", "settings": "pre-treated 12 hours at 150 nM; SIN1 5 mM 30 minutes; FIG. 3", "experimental": "This assay was carried out in human control myotubes LHCN-M2 after 9 days in differentiation medium. Said myotubes were pre-treated for 12 hours with compounds AHK1 and AHK2 at a concentration of 150 nM. After treatment, the myotubes were subjected to peroxynitrite-induced nitro-oxidative stress by means of the addition of SIN1 (5 mM) for 30 minutes. RyR1-calstabin colocalization was analyzed by means of the in situ proximity ligation technique (in situ PLA) for which Sigma's Duolink II Network Fluorescence Kit and RyR1- and calstabin 1-specific antibodies were used. This technique allows detecting the exact location of two antigens located at a distance less than 40 nm from one another. To determine RyR1-calstabin-1 colocalization, 3 photographs were quantified for each condition with about 9 myotubes per field, using Image J computer software (http://rsb.info.nih.gov/ij/download.html). The colocalization area in each image was normalized to the myosin expression area, which was determined by means of immunofluorescence with a fluorescein-conjugated specific antibody."}, "[3]": {"system": "human control myotubes LHCN-M2", "experiment": "In vitro toxicity in human myotubes, CytoTox 96 colorimetric assay", "assay_type": "cell-based", "settings": "24 hours of incubation", "experimental": "These assays were carried out in human control myotubes LHCN-M2 after 14 days in differentiation medium. To determine the toxicity of the different analyzed compounds, particularly AHK1 and AHK2 according to the invention, these compounds were added to the culture medium for 24 hours at 37° C. at different concentrations (0-2 mM). For comparison purposes, the same assay was performed by adding reference compound S-107. Cell viability was determined by means of Cytotox 96 (Promega) colorimetric assay following instructions in the manual."}, "[4]": {"system": "fibers isolated from mouse flexor digitorum brevis muscle (dystrophic MDX fibers)", "experiment": "Baseline intracellular calcium levels in mouse muscle fibers (Fura 2-AM)", "assay_type": "cell-based", "settings": "150 nM, overnight treatment; FIG. 2", "experimental": "Fibers isolated from mouse flexor digitorum brevis muscle were cultured overnight in the presence or absence of compounds AHK1 and AHK2 at a concentration of 150 nM. Baseline intracellular calcium levels were evaluated by means of incubating the fibers with Fura 2-AM ratiometric fluorochrome (4 μM) and pluronic acid (0.02%) for 30 minutes at 37° C., in the culture medium. The fibers were viewed with a high-resolution digital camera and intracellular [Ca^2+] was estimated by means of a 340 nm/380 nm excitation ratio."}, "mdx mice [5]": {"system": "mdx mice", "experiment": "Exacerbated defense response (freezing) after acute stress in mdx mice", "assay_type": "in vivo, mouse", "settings": "four-month old mdx mice; five-week treatment, 0.25 mg/mL in drinking water; FIG. 7", "experimental": "To determine the effect of the compounds according to the invention on the heart and CNS, four-month old mice were treated for 5 weeks with compound AHK2 in drinking water at a concentration of 0.25 mg/mL. The four-month old mdx mice show an exacerbated defense response after acute stress which is independent of motor, cardiac and respiratory deficiencies, and is controlled by central mechanisms (FIG. 7). Acute stress was brought about by means of manual immobilizations for 15 seconds in a posture commonly used for performing intraperitoneal injections. After acute stress, the mice are monitored for 1 minute and the % of freezing time or tonic immobility periods of at least 1 second with 90% immobility sensitivity is calculated."}, "mdx mice [6]": {"system": "mdx mice", "experiment": "Muscle degeneration/regeneration: percentage of central nuclei in muscle cryosections of mdx mice", "assay_type": "in vivo, mouse", "settings": "5-week treatment of mdx mice; 0.25 mg/mL in drinking water; FIG. 5", "experimental": "After concluding the 5-week treatment, the tibialis anterior muscle was obtained and processed for subsequent biochemical and immunohistological analysis to determine the degree of muscle damage. Cell-death derived regeneration was determined in muscle cryosections by means of quantifying the percentage of central nuclei using standard immunofluorescence techniques for detecting collagen IV and cell nuclei."}, "mdx mice [7]": {"system": "mdx mice", "experiment": "Isoproterenol-induced cardiomyopathy in mdx mice (Evans Blue uptake)", "assay_type": "in vivo, mouse", "settings": "four-month old mdx mice; 5-week treatment, 0.25 mg/mL in drinking water; FIG. 8", "experimental": "The myocardium of the four-month old dystrophic mdx mice is highly susceptible to mechanical stress and the compound isoproterenol induces cardiomyopathy in these mice (FIG. 8). Cardiomyocyte sarcolemma integrity was determined by means of measuring the uptake of Evans Blue dye that accumulates in cardiomyocytes with membrane damage. Evans Blue was administered 24 hours before extracting the hearts at a concentration of 10 mg/ml by means of intraperitoneal injection (10 μl/g of body weight). Damage with isoproterenol was carried out by means of 3 sequential intraperitoneal injections of beta-isoproterenol (350 ng/g of body weight) 18, 20 and 22 hours after administering Evans Blue in order to determine the degree of muscle damage. Cell-death derived regeneration was determined in muscle cryosections by means of quantifying the percentage of central nuclei, using standard immunofluorescence techniques for detecting collagen IV and cell nuclei."}, "mdx mice [8]": {"system": "mdx mice", "experiment": "Grip strength of dystrophic mdx mice", "assay_type": "in vivo, mouse", "settings": "0.25 mg/mL in drinking water, one-month old mdx mice", "experimental": "One-month old male dystrophic mdx mice supplied by Jackson Laboratory (https://www.jax.org/strain/001801) were used. The biological assays for measuring the effect of the Ahulken (AHK) compounds on muscle function were performed with one-month old mice, whereas the in vivo assays for determining the effect on the heart and CNS were performed with four-month old mice. The one-month old mice were treated with compound AHK1 or compound AHK2 for 5 weeks, where said compounds were administered in drinking water at a concentration of 0.25 mg/mL. The muscle strength of the front paws was measured every week using a grip strength meter and the obtained value was normalized by the body weight of the animal. To that end, the indications described in the TREAT-NMD Neuromuscular Network protocol (http://www.treat-nmd.eu/downloads/file/sops/dmd/MDX/DMD_M.2.2.001.pdf) were followed."}}, "data": [{"compound": "4-[3-(4-benzylpiperidinyl)-propanoyl]-2,3,4,5-tetrahydro-1,4-benzothiazepine [JTV-519]", "values": [{"measurement": "adrenaline- and caffeine-induced myocardial necrosis", "setting": "[1]", "result": "inhibits"}]}, {"compound": "COc1ccc(SCc2cn(CCN(C)C)nn2)cc1", "note": "[AHK2, 1-[2-(N,N-dimethylamino)ethyl]-4-[4-(methoxy)phenylthiomethyl]-1H-1,2,3-triazole]", "values": [{"measurement": "dissociation of the RyR1-Calst1 complex in the presence of SIN1", "setting": "[2]", "result": "partially prevented"}, {"measurement": "in vitro acute toxicity against human myotubes", "setting": "[3]; concentrations between 10 nM and 2 mM, FIG. 1", "result": "do not show in vitro acute toxicity"}, {"measurement": "intracellular calcium levels at rest in MDX fibers", "setting": "[4]", "result": "brought intracellular calcium levels back to the control levels"}, {"measurement": "exacerbated defense response-related CNS phenotype (% of freezing time after acute stress)", "setting": "mdx mice [5]", "result": "significantly improves"}, {"measurement": "percentage of central nuclei", "setting": "mdx mice [6]", "result": "significantly reduced"}, {"measurement": "cardiomyocyte sarcolemma integrity (Evans Blue uptake)", "setting": "mdx mice [7]", "result": "increases"}, {"measurement": "isoproterenol-induced damage of the myocardium", "setting": "mdx mice [7]", "result": "protects the myocardium from isoproterenol-induced damage"}, {"measurement": "grip strength compared to untreated littermates", "setting": "mdx mice [8]; after 2 weeks of treatment", "result": "increased significantly"}, {"measurement": "increase of muscle strength", "setting": "mdx mice [8]; after 5 weeks of treatment, FIG. 4", "result": 20, "unit": "%"}]}, {"compound": "O=C(O)Cn1cc(CSc2cccc(Cl)c2)nn1", "note": "[Example 23, 1-carboxymethyl-4-[3-(chloro)phenylthiomethyl]-1H-1,2,3-triazole]", "values": [{"measurement": "melting point", "result": "146 to 148", "unit": "°C"}]}, {"compound": "COc1ccc(SCc2cn(CC(=O)O)nn2)cc1", "note": "[Example 11, 1-carboxymethyl-4-[4-(methoxy)phenylthiomethyl]-1H-1,2,3-triazole]", "values": [{"measurement": "melting point", "result": "163 to 170", "unit": "°C"}]}, {"compound": "COc1ccc2c(c1)CN(C)CCS2", "note": "[Example S-107, reference compound]", "values": [{"measurement": "cellular toxicity", "setting": "[3]; concentration of 1 mM", "result": 100, "unit": "%"}]}, {"compound": "COc1cccc(S(=O)(=O)Cc2cn(CC(=O)O)nn2)c1", "note": "[Example 22, 1-carboxymethyl-4-[3-(methoxy)phenylsulfonylmethyl]-1H-1,2,3-triazole]", "values": [{"measurement": "melting point", "result": "106 to 115", "unit": "°C"}]}]}
